Data from patent publication US8853227B2, “Methotrexate adjuvants to reduce toxicity and methods for using the same” (Tosk, Incorporated, priority 2008, dated 2014).

How the values were obtained:
CCRF-CEM cells = assay: Cell Culture Study I (MTX cytotoxicity, alamarBlue); type: cell-based, human; conditions: 72 hours
Experimental: In this study, CCRF-CEM cells purchased from ATCC were cultured and then 12 tubes containing approximately 10^6 cells each treated for 72 hours with media (Group1), MTX 0.03 μM (Group2), MTX+Leucovorin 1 μM (Group3), MTX+Leucovorin 10 μM (Group4), MTX+Leucovorin 100 μM (GroupS), MTX+TK-112690 1 μM (Group6), MTX+TK-112690 10 μM (Group7) and MTX+TK-112690 100 μM (Group8). […] Viability was measured as percent reduction of alamarBlue absorbance.
The tumor cell line CCR-CEM (human T-cell acute lymphoblastic leukemia) is obtained from American Type Culture Collection (CRL-1593.2) and cultured in accordance with the product information sheet with the following exceptions: 55.3 cm^2 Petri dishes are used instead of 75 cm^2 culture flasks, and 1% penicillin-streptomycin solution (HyClone SV30010) and 1% GlutaMAX™ (Gibco 35050) are added to the culture medium.
TK-112690, the representative 2,2′-anhydropyrimidine test article, is dissolved in 40% DMSO, sterile filtered then diluted with sterile distilled water to obtain initial working solutions of 10, 100 and 1000 μM. In testing, a 100 fold dilution is made in culture media to give final assay concentrations of 0.1, 1.0 and 10.0 μM. MTX (SAFC Biosciences M8407) is dissolved in sterile distilled water and 5 N NaOH then sterile filtered. The final pH of the stock solution is 7.8 and working solutions are made with sterile distilled water for final assay concentrations of 30, 3.0, 0.3, 0.03 and 0.003 μM. Leucovorin (Sigma F-7878) is dissolved in sterile distilled water, sterile filtered and diluted with sterile distilled water for final assay concentrations of 0.1, 1.0 and 10.0 μM.
Aliquots of 100 μL of cell suspension are plated in 96 well microtiter plates (Corning costar 3595) and placed in an atmosphere of 5% CO2 at 37° C. (Fisher Scientific Isotemp 3500 CO2 Incubator). After 24 hours, 100 μL of growth medium [RPMI-1640 w/L-glutamine (Cambrex 12-702Q) fortified with sodium pyruvate (HyClone SH30239.01), fetal bovine serum (SAFC Biosciences 12107C) and HEPES buffer (Gibco 15630)] and 2 μL of test solution or vehicle are added respectively per well and the plates incubated for an additional 72 hour incubation. MTX is evaluated at concentrations of 0.003, 0.03, 0.30 and 3.0 μM alone or in combination with either a 2,2′-anhydropyrimidine test article or Leucovorin at concentrations of 0.1, 1.0, 10.0 μM. At the end of incubation, the efficacy of anti-cell proliferation is determined by optical absorbance at A=570 and 600 nm [Spectramax 250 (Molecular Devices)] in accordance with the standard alamarBlue™ (Biosource) protocol.
Group 1 is the cell control (media treated). Group 2 corresponds to cells treated with 0.03 μM MTX. Group 3 are cells treated with 1.0 μM Leucovorin. Group 4 are cells treated with 0.1 μM Leucovorin. […]

Drosophila melanogaster = assay: Fly Study I (protection from MTX-induced lethality); type: in vivo; conditions: for Flies Alive (Number): Fly Study I method, test compound + MTX (MTX Alone: no adjuvant), Table 3
Experimental: In this study, Drosophila melanogaster eggs (50 eggs per vial) were treated with either 0.005 mg TK-112690+0.4 mg MTX (Group 1), 0.01 mg TK-112690+0.4 mg MTX (Group 2), 0.04 mg TK-112690+0.4 mg MTX (Group 3), 0.1 mg TK-112690+0.4 mg MTX (Group 4), 0.4 mg MTX alone (Group 5) or saline blank (Group 6). Two vials of eggs for each dose group were evaluated for viability (viable flies plus pupae).
The efficacy of cancer chemotherapy can be improved if agents are available to reduce the adverse events associated with treatment with cytotoxic agents. To this end, Drosophila melanogaster (commonly know as the fruit fly) is an ideal organism to screen chemical compounds for such side-effect-reducing agents. This study is aimed at finding a dose of a 2,2′-anhydropyrimidine test article that protects against MTX-induced lethality in insects.
Increasing amounts of a 2,2′-anhydropyrimidine test article (typically 0.03 to 0.1 mg) are mixed in an aqueous solution with 0.3 (or 0.4) mg MTX. Four milliliters (mL) of a 2,2′-anhydropyrimidine test article+MTX solutions are added to an appropriate amount of instant fly medium. Fruit fly eggs are added to a 2,2′-anhydropyrimidine test article+MTX treated medium and incubated for up to 31 days. After the 31 day incubation, each assay is scored by the number of mature fly and pupae per vial.
The assays are set up in clear sterile polystyrene narrow diameter vials from Applied Scientific (Hampton, N.H.). Vials are stored in trays and incubated in a darkened 25° C. incubator.
Reagents and materials used are: 50 mg/mL MTX in H2O (pH 8), 20 mg/mL of the 2,2′-anhydropyrimidine test article in H2O, water, sterile polystyrene narrow diameter vials from Applied Scientific, Instant Drosophila Food Medium, Oregon-R Drosophila melanogaster, 25° C. incubator, and 15 mL polystyrene conical tubes
Each assay is performed in a separate fly vial. Increasing amounts of a 2,2′-anhydropyrimidine (0.005 to 1.0 mg) are tested for MTX side-effect-reduction on fly eggs. Amounts of the 2,2′-anhydropyrimidine test article are drawn from a 20 mg/mL stock solution dissolved in water. Nine mL of the 2,2′-anhydropyrimidine+0.3 (or 0.4) mg MTX solutions are pre-mixed with water in a 15 mL conical tube. Duplicate assays receive 4 mL of the 2,2′-anhydropyrimidine test article+0.3 (or 0.4) mg MTX solutions. Pre-measured amounts of instant drosophila medium are added to each assay to achieve optimal hydration level. Controls are (1) 4 mL water alone and (2) 0.3 (or 0.4) mg MTX alone. Precisely 50 fly eggs aged for ˜18 hours are added to each assay. Assays are capped with a fitted plug and incubated for 30 days in a darkened 25° C. incubator. Assays are scored by the number of dead pupae or adult flies per vial.

SMILES | Flies Alive (Number) (Drosophila melanogaster) | also measured
Nc1nc2c(c(=O)[nH]1)N(C=O)C(CNc1ccc(C(=O)N[C@@H](CCC(=O)O)C(=O)O)cc1)CN2 (some centres unmarked) [Leucovorin, reference compound] | – | cell viability, Leucovorin+MTX versus MTX alone (protection by positive control) (CCRF-CEM cells; 0.03 μM MTX + Leucovorin, p<0.000 and 0.002): statistically different; cell viability, test article alone versus control (CCRF-CEM cells; without MTX): not statistically different than control
O=c1nc2n(cc1COCc1ccccc1)[C@@H]1O[C@H](CO)[C@@H](O)[C@@H]1O2 [TK-000008] | 0 | –
Cc1cn2c(nc1=O)O[C@H]1[C@H](O)[C@@H](CN=[N+]=[N-])O[C@H]12 [TK-000011] | 0 | –
COCc1cn2c(nc1=O)O[C@H]1[C@H](O)[C@@H](CO)O[C@H]12 [TK-000009] | 5 | activity in the Fly model for protection against MTX-induced lethality (Drosophila melanogaster): active
O=c1nc2n(cc1NCc1ccccc1)[C@@H]1O[C@H](CO)[C@@H](O)[C@@H]1O2 [TK-000006] | 0 | –
Cc1ccc(SCc2cn3c(nc2=O)O[C@H]2C(O)[C@@H](CO)O[C@H]23)cc1 (some centres unmarked) [TK-000016] | 0 | –
Cc1cn2c(nc1=O)O[C@H]1C(O)[C@@H](CF)O[C@H]12 (some centres unmarked) [TK-000015] | 0 | –
CCOCc1cn2c(nc1=O)O[C@H]1[C@H](O)[C@@H](CO)O[C@H]12 [TK-000007] | 3 | –
CC(=N)OCc1cn2c(nc1=O)O[C@H]1[C@H](O)[C@@H](CO)O[C@H]12 [TK-000010] | 0 | –
